Results: ChEMBL document CHEMBL1130596, “A high affinity, mu-opioid receptor-selective enkephalin analogue lacking an N-terminal tyrosine” (Bioorg Med Chem Lett, 1998)
Starred links: 1 amine or outer side, 2 acyl side, 3 side chain; linkers in the order of their positions; H or OH if unused. Positions of bridges follow the written chain, without caps; N, C: chain ends. Non-standard residues stand in square brackets, D forms with d. Residues, ends and D or L forms follow the SMILES beside them. dPen = CC(C)(S)[C@@H](N)C(=O)O; Pen = CC(C)(S)[C@H](N)C(=O)O; CH2CH2 = C(C[*:2])[*:1]

Tests used:
[1] = Binding affinity against Opioid receptor delta 1
Mu-type opioid receptor = Mu-type opioid receptor (Cavia porcellus, UniProt P97266); test: Binding affinity against mu opioid receptor
[2] = target: Opioid receptors; mu/kappa/delta (Homo sapiens, UniProt P41145+P41143+P35372); test: Agonistic activity tested in vitro in guinea pig ileum opioid; format: functional, tissue-based, Cavia porcellus; settings: target entry is the homologue from another species

Mu-type opioid receptor, sequence (P97266 whole entry): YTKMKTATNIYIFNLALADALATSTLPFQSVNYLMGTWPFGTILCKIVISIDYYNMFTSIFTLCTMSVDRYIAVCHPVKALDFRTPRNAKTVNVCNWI

Row | Structure (SMILES) | Ki [1] [nM] | Ki (Mu-type opioid receptor) [nM] | IC50 [2] [nM]
1 | CC1(C)SSC[C@H](NC(=O)[C@@H](N)Cc2ccc(O)cc2)C(=O)N[C@@H](Cc2ccccc2)C(=O)N[C@@H]1C(=O)O (H-YCF[Pen]-OH; disulfide 2-4) | 0.74 |  | 
2 | CC1(C)SCCSC[C@@H](NC(=O)[C@@H](N)Cc2ccc(O)cc2)C(=O)N[C@@H](Cc2ccccc2)C(=O)N[C@H]1C(N)=O (H-Y[dC]F[dPen]-NH2; linker 2-4 via CH2CH2) |  | 0.29 | 
3 | CC1(C)SSC[C@@H](NC(=O)[C@@H](N)Cc2ccccc2)C(=O)N[C@@H](Cc2ccccc2)C(=O)N[C@H]1C(=O)O |  | 610 | 
4 | CC1(C)SCCSC[C@@H](NC(=O)[C@@H](N)Cc2ccccc2)C(=O)N[C@@H](Cc2ccccc2)C(=O)N[C@H]1C(N)=O |  | 1.36 | 9.1
5 | C[C@@H](NC(=O)[C@@H](N)Cc1ccc(O)cc1)C(=O)NCC(=O)N(C)[C@@H](Cc1ccccc1)C(=O)NCCO [DAMGO] |  | 0.99 | 
